Source: the supplement of paper PMC4862054

Legend:
Conditions in all cases: 72 h
DU-4475 [1] = tested on: DU-4475
Method in brief: (§1)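 Breast cancer cell lines in 20 µl suspension were seeded onto 384-well plates that already held compound dissolved in 5 µl medium and were incubated for 72 h. Viability was measured by adding 2.5 µl CellTiter-Blue for 2 h at 37 °C and reading fluorescence at 560/590 nm. Each plate was normalised to vehicle and a positive kill control and checked by Z'-factor. EC50 was taken from a fitted percent-inhibition dose-response curve, censored at the highest concentration, and rows with a drug sensitivity score of zero were removed.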

CAL-148 = tested on: CAL-148
Method in brief: as §1

CAL-85-1 [2] = tested on: CAL-85-1
Method in brief: as §1

CAL-51 [3] = tested on: CAL-51
Method in brief: as §1

MDA-MB-453 [4] = tested on: MDA-MB-453
Method in brief: as §1

CAL-120 = tested on: CAL-120
Method in brief: (§2)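 A 20 µl suspension of breast cancer cells was placed in 384-well plates that already contained compound at 5 concentrations in 10-fold steps across a compound-specific 10,000-fold range, and the plates were left for 72 h. CellTox Green fluorescence at 485/520 nm gave cell death, and CellTiter-Glo luminescence, read after 10 min at room temperature, gave viability. Each plate was normalised to 0.1 % DMSO and a positive kill control. EC50 was fitted from the curves and censored at the top concentration.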

BT-549 = tested on: BT-549
Method in brief: as §2

BT-474 = tested on: BT-474
Method in brief: as §2

MDA-MB-436 = tested on: MDA-MB-436
Method in brief: as §2

CAL-85-1 [5] = tested on: CAL-85-1; remark: listed apart in the source
Method in brief: as §2

CAL-51 [6] = tested on: CAL-51; remark: listed apart in the source
Method in brief: as §2

MFM-223 = tested on: MFM-223
Method in brief: as §2

MDA-MB-468 = tested on: MDA-MB-468
Method in brief: as §2

HDQ-P1 = tested on: HDQ-P1
Method in brief: as §2

MDA-MB-453 [7] = tested on: MDA-MB-453; remark: listed apart in the source
Method in brief: as §2

MDA-MB-231 = tested on: MDA-MB-231
Method in brief: as §2

SK-BR-3 = tested on: SK-BR-3
Method in brief: as §2

HCC1937 = tested on: HCC1937
Method in brief: as §2

HCC1599 = tested on: HCC1599
Method in brief: as §2

Hs578T = tested on: Hs578T
Method in brief: as §2

DU-4475 [8] = tested on: DU-4475; remark: listed apart in the source
Method in brief: as §2

Structure (SMILES) | EC50, CellTiter-Blue viability (DU-4475 [1]) [nM] | EC50, CellTiter-Blue viability (CAL-148) [nM] | EC50, CellTiter-Blue viability (CAL-85-1 [2]) [nM] | EC50, CellTiter-Blue viability (CAL-51 [3]) [nM] | EC50, CellTiter-Blue viability (MDA-MB-453 [4]) [nM] | EC50, CellTiter-Glo (CAL-120) [nM] | EC50, CellTiter-Glo (BT-549) [nM] | EC50, CellTiter-Glo (BT-474) [nM] | EC50, CellTiter-Glo (MDA-MB-436) [nM] | EC50, CellTiter-Glo (CAL-85-1 [5]) [nM] | EC50, CellTiter-Glo (CAL-51 [6]) [nM] | EC50, CellTiter-Glo (MFM-223) [nM] | EC50, CellTiter-Glo (MDA-MB-468) [nM] | EC50, CellTiter-Glo (HDQ-P1) [nM] | EC50, CellTiter-Glo (MDA-MB-453 [7]) [nM] | EC50, CellTiter-Glo (MDA-MB-231) [nM] | EC50, CellTiter-Glo (SK-BR-3) [nM] | EC50, CellTiter-Glo (HCC1937) [nM] | EC50, CellTiter-Glo (HCC1599) [nM] | EC50, CellTiter-Glo (Hs578T) [nM] | EC50, CellTiter-Glo (DU-4475 [8]) [nM]
COc1cc(Nc2c(C#N)cnc3cc(OCCCN4CCN(C)CC4)c(OC)cc23)c(Cl)cc1Cl [Bosutinib] | 5670 | 1860 | 3180 | 5020 | 2670 | 1450 | 3160 | 2480 | 2170 | 1580 | 1400 | 1910 | 1920 | 972 | 3220 | 1810 | 3120 | 2100 | 3160 | 9760 | –
CN(Cc1cnc2nc(N)nc(N)c2n1)c1ccc(C(=O)N[C@@H](CCC(=O)O)C(=O)O)cc1 [Methotrexate] | – | 46.5 | 71.7 | 84.8 | – | 809 | – | 7230 | 1460 | 2020 | 19.6 | – | – | 12.9 | – | 6840 | – | 20.4 | 17800 | 29000 | –
CNC(=O)c1ccccc1Sc1ccc2c(/C=C/c3ccccn3)n[nH]c2c1 [Axitinib] | 2250 | 1880 | 1250 | 1620 | 657 | 3570 | – | – | 3040 | – | 465 | 348 | 3880 | 4770 | – | – | – | – | 881 | – | –
Nc1ccn([C@@H]2O[C@H](CO)[C@@H](O)C2(F)F)c(=O)n1 [Gemcitabine] | 91.6 | 18.8 | 87.4 | 22 | 103 | 87.3 | 5.01 | 32.1 | 9.55 | 18.5 | 12.5 | – | 6.86 | – | 47.6 | – | 12.8 | – | 18.4 | 26.9 | 20.7
COc1ccc(S(=O)(=O)Nc2cccnc2Nc2ccc(O)cc2)cc1 [ABT-751] | 1250 | 949 | 290 | 772 | 114 | 218 | 499 | 575 | 507 | 264 | 6520 | 1010 | 397 | 231 | 149 | 740 | 529 | 350 | 752 | 773 | 1510
C/C(=C\c1csc(C)n1)[C@@H]1C[C@@H]2O[C@]2(C)CCC[C@H](C)[C@H](O)[C@@H](C)C(=O)C(C)(C)[C@@H](O)CC(=O)N1 [Ixabepilone] | 642 | 601 | 947 | > 1000 | 515 | – | 38.2 | 808 | – | 660 | 23 | – | 31.4 | – | – | – | – | – | – | – | –
